Test results taken from ChEMBL document CHEMBL5465560, “Selectivity Literature for EUbOPEN Chemogenomic Library” (2024).
Blank lines part the entries; values can stand above or below the compound they belong to.

Assays:
[1] = tested on: Hepatocyte growth factor receptor (Homo sapiens), P08581 [M1250T]; test: (§1) Selectivity interaction (Kinase panel (Z-LYTE Assay)) EUB0001632a MET; details: at 10 µM
[2] = molecular target: Hepatocyte growth factor receptor (Homo sapiens, UniProt P08581); test: as §1; details: at 10 µM
[3] = molecular target: T1, Serine/threonine-protein kinase BRSK2 (Homo sapiens) (UniProt Q8IWQ3); test: Selectivity interaction (SelectScreen profiling (Invitrogen)) EUB0000607a BRSK2; details: at 2 µM
T1 sequence (whole entry): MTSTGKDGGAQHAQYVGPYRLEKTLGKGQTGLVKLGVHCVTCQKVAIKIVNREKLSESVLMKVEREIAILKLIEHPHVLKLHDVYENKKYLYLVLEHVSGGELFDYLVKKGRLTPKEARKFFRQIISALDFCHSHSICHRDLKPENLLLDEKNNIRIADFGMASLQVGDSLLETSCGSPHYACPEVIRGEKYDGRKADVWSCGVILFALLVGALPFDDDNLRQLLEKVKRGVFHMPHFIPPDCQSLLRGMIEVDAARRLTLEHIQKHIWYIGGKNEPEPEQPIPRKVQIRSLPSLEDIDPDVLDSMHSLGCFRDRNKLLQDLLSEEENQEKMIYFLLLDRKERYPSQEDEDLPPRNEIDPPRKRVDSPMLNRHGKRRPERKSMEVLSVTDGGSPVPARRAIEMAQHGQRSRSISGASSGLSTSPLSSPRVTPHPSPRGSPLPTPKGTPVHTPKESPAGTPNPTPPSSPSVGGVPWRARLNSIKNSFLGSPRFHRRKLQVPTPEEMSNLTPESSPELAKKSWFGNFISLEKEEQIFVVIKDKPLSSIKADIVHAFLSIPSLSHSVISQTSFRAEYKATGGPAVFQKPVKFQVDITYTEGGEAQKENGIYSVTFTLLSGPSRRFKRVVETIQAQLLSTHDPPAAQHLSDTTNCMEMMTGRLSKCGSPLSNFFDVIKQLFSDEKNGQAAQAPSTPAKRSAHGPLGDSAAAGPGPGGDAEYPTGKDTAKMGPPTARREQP

[4] = molecular target: Mitogen-activated protein kinase 11 (Homo sapiens) (UniProt Q15759); test: Selectivity interaction (KinomeScan (DiscoverX)) EUB0000607a MAPK11; details: at 10 µM
[5] = molecular target: Cyclin-dependent kinase 4 (Homo sapiens, UniProt P11802); test: Selectivity interaction (ActivX KiNativ screen (kinase selectivity in THP-1 cell lysates)) EUB0000639a CDK4; assay type: subcellular; details: lysate
[6] = molecular target: T2, Inhibitor of nuclear factor kappa-B kinase subunit epsilon (Homo sapiens) (UniProt Q14164); test: Selectivity interaction (ActivX KiNativ screen (kinase selectivity in THP-1 cell lysates)) EUB0000639a IKBKE; assay type: subcellular; details: lysate, at 1 µM
T2 sequence (whole entry): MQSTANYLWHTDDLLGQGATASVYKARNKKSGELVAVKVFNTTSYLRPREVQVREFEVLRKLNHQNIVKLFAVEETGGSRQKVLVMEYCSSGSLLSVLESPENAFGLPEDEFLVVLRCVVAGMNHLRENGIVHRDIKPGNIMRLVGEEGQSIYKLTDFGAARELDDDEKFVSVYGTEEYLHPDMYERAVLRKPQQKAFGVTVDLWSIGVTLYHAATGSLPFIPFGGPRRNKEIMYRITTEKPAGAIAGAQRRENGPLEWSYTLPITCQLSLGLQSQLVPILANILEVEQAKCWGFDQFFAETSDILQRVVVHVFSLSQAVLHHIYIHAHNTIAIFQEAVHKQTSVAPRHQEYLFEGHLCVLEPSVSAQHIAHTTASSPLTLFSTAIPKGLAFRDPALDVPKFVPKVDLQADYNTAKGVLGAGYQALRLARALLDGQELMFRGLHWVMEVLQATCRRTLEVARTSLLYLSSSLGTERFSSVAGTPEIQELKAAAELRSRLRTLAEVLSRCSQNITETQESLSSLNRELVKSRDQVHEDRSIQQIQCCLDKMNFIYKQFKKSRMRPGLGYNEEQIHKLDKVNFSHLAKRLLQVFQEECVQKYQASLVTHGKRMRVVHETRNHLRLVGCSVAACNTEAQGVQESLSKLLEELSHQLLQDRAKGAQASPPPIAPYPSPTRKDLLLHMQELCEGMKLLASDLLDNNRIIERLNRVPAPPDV

[7] = molecular target: Serine/threonine-protein kinase MARK2 (Homo sapiens) (UniProt Q7KZI7); test: Selectivity interaction (Ambit KINOMEscan and KiNATiv profiling in Jurkat cells) EUB0000090b MARK2; assay type: cell-based; details: at 1 µM
[8] = molecular target: Serine/threonine-protein kinase 24 (Homo sapiens) (UniProt Q9Y6E0); test: Selectivity interaction (KinomeScan (DiscoverX)) EUB0000655a STK24; details: at 10 µM
[9] = molecular target: Protein arginine N-methyltransferase 6 (Homo sapiens, UniProt Q96LA8); details: at 1 µM
[10] = molecular target: Serine/threonine-protein kinase 16 (Homo sapiens, UniProt O75716); test: Selectivity interaction (Enzymatic assay) EUB0001550a STK16
[11] = tested on: Tyrosine-protein kinase ABL1 (Homo sapiens), P00519 [M351T]; details: at 10 µM

Chain of Cyclin-dependent kinase 4 (P11802 whole entry): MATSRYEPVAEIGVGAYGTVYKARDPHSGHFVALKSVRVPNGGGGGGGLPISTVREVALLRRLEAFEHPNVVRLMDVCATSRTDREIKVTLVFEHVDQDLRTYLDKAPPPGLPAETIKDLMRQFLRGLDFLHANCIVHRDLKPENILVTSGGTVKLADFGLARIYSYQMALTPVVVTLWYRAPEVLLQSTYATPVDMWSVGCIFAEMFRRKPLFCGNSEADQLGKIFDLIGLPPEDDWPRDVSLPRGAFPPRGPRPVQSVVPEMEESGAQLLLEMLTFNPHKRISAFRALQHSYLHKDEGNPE
Chain of Serine/threonine-protein kinase 24 (Homo sapiens) (Q9Y6E0 whole entry, looked up): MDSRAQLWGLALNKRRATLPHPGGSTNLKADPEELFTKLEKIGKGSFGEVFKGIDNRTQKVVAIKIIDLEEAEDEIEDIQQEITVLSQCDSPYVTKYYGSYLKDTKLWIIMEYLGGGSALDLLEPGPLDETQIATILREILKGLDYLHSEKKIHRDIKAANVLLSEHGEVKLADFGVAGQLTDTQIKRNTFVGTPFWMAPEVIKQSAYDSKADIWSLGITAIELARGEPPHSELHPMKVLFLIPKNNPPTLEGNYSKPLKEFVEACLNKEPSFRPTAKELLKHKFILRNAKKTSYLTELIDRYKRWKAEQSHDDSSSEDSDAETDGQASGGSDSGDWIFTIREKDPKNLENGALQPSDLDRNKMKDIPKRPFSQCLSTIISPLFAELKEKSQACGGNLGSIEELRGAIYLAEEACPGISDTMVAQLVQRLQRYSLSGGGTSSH
Chain of Mitogen-activated protein kinase 11 (Homo sapiens) (Q15759 whole entry): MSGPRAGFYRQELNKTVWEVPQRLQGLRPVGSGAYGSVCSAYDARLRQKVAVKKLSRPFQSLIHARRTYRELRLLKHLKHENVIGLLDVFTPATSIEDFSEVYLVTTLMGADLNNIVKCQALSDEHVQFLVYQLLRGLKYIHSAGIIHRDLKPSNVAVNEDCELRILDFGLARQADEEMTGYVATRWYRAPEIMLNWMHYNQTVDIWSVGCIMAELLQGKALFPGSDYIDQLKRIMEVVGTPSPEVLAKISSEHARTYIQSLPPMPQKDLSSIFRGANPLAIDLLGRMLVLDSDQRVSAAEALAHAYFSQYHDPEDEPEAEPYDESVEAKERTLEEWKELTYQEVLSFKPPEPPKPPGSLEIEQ
Chain of Hepatocyte growth factor receptor (Homo sapiens), P08581 [M1250T] (P08581 whole entry M1250T): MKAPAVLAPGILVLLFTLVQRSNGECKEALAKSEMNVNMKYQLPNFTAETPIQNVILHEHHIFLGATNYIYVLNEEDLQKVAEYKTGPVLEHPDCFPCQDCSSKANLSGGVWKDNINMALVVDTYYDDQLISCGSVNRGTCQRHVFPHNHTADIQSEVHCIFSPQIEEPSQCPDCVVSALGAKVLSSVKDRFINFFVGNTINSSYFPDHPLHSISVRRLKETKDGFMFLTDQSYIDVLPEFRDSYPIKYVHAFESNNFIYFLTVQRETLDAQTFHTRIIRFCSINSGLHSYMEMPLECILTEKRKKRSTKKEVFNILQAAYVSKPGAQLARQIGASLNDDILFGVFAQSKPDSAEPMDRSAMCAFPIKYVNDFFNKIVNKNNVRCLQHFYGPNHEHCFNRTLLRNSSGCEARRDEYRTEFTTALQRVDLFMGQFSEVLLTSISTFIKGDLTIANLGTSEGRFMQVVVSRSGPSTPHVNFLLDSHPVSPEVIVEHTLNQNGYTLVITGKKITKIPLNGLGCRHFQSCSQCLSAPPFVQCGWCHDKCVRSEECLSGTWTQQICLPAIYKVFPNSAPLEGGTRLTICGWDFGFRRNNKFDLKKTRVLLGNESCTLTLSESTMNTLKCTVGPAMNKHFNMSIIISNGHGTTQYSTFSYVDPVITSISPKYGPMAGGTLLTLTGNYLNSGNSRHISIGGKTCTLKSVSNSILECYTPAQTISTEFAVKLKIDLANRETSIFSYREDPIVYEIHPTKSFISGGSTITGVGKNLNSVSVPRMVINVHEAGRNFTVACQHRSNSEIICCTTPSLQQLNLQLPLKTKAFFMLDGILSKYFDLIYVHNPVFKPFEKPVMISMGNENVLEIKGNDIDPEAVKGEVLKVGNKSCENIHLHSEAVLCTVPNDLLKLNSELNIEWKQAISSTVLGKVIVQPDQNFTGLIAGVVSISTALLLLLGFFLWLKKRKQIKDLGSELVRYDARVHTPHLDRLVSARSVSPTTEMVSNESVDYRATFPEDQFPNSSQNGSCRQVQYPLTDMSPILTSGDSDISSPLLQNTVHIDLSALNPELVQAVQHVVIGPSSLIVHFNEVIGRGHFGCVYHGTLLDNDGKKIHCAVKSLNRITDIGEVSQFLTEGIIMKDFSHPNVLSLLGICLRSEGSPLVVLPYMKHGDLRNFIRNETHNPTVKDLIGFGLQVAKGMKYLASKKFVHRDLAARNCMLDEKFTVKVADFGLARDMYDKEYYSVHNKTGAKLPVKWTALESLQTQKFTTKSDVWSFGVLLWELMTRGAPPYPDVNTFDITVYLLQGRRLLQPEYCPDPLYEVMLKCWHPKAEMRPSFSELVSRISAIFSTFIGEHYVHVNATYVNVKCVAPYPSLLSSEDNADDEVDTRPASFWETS
Chain of Protein arginine N-methyltransferase 6 (Q96LA8 whole entry, looked up): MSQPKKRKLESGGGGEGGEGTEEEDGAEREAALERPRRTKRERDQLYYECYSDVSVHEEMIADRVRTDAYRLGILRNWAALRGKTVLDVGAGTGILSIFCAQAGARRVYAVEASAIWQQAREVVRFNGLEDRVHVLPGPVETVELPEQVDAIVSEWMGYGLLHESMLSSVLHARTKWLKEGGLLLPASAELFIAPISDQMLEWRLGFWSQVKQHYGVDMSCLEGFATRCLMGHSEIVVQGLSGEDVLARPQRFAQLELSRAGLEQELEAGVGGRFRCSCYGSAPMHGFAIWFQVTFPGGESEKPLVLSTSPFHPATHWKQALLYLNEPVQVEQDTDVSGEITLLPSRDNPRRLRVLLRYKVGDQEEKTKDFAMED
Chain of Hepatocyte growth factor receptor (P08581 whole entry): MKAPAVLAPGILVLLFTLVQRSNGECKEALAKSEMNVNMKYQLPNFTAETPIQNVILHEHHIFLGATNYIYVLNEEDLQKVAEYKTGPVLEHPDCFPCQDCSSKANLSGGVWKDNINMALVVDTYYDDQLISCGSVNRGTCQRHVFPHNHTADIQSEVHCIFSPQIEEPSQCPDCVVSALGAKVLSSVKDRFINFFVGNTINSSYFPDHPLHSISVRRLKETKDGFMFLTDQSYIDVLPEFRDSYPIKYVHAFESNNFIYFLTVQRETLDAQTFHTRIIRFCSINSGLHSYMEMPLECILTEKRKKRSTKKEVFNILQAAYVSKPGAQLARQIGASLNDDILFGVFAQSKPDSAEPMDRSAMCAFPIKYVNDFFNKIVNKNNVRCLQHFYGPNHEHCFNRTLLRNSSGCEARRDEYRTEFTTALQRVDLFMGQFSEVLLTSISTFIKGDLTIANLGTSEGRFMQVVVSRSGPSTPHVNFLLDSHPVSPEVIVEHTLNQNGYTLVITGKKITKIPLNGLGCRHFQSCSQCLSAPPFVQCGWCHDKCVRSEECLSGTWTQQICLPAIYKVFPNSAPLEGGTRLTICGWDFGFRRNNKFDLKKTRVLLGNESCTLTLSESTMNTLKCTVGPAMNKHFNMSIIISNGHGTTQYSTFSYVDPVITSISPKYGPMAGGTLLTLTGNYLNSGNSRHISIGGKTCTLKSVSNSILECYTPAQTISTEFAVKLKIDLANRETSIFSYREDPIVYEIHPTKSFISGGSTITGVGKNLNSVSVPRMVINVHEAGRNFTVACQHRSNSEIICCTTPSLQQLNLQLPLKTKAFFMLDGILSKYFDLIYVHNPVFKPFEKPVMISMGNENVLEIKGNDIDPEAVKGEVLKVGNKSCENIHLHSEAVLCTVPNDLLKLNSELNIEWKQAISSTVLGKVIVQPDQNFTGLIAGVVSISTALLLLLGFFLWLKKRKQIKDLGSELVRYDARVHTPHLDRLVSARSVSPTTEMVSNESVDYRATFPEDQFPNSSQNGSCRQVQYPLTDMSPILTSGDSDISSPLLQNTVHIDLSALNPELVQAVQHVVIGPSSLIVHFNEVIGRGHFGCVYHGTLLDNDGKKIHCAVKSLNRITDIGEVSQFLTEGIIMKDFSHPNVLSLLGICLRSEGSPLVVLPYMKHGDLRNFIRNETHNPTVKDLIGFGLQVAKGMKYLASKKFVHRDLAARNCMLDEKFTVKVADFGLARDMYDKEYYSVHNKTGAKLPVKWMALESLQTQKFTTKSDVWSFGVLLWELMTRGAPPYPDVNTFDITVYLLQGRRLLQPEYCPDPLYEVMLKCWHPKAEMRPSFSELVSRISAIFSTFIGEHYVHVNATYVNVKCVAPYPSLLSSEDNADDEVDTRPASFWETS
Chain of Serine/threonine-protein kinase 16 (O75716 whole entry): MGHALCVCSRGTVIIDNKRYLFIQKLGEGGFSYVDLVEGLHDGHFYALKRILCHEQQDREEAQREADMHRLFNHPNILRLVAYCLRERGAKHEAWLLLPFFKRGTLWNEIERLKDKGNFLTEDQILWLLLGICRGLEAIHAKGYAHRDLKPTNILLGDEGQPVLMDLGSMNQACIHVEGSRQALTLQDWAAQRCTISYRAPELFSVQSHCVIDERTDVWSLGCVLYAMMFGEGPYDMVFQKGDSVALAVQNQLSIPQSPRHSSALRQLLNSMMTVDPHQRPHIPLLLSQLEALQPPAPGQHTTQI

SMILES: CNC(=O)Nc1ccc(-c2nc(N3CC4CCC(C3)O4)c3cnn(C4CCC5(CC4)OCCO5)c3n2)cc1
% of inhibition [3]: 1%
% of control [4]: 100%

SMILES: CN(C)C/C=C/C(=O)Nc1ccc(C(=O)N2CCCC(Nc3ncc(Cl)c(-c4c[nH]c5ccccc45)n3)C2)cc1 (stereo not given)
% of control [7]: 78%

SMILES: CN(C)CCOc1ccc(-c2nc(-c3ccncc3)c(-c3ccc4c(c3)CC/C4=N\O)[nH]2)cc1
% of control [8]: 100%

SMILES: CNCCN1CCC(c2cc(CN(C)C(=O)c3cccc(Oc4ccccc4)c3)ccn2)CC1
% activity [9]: > 90%

SMILES: Cc1cc([C@@H](C)Nc2ccccc2C(=O)O)c2nc(N3CCOCC3)cc(=O)n2c1 [AZD-6482]
% of control [11]: 94%

The next lines start with the values.

% of control [1]: 1.3%
% of control [2]: -11.4%
SMILES: Cn1cc(-n2cnc3c(NCc4nc5cc(Cl)c(Cl)cc5[nH]4)nc(N4CCOCC4)nc32)cn1

% of inhibition ([5]; at 0.01 µM): -1.8%
% of inhibition ([5]; at 0.04 µM): -3.4%
% of inhibition ([5]; at 0.2 µM): -2.3%
% of inhibition ([5]; at 1 µM): -9.6%
% of inhibition ([5]; at 5 µM): -24.4%
% of inhibition [6]: 10%
SMILES: CC[C@@H]1[C@H](F)C(=O)N[C@@H]1COc1nccc2cc(C(N)=O)c(OC)cc12 [ZIMLOVISERTIB]

IC50 [10]: 0.56 µM
SMILES: CN(C)CC#Cc1ccc2[nH]c3c(c2c1)-c1nc(N)ncc1CCC3
